Reference: US12570613B2, “Imidazoquinoline or benzoindazolone compound and intermediate for preparing same” (LMITO THERAPEUTICS INC., priority 2020, dated 2026)

Molecular target: NQO1 protein (Homo sapiens, UniProt P15559)
Experiment: In vitro NQO1 enzyme activity assay (cytochrome C reduction, absorbance at 550 nm)
Assay type: biochemical
Conditions: NQO1 2 ng
Method: In order to evaluate the activity of the synthesized compound in NQO1, the experiments were performed as follows:
The synthesized compound was dissolved in DMSO to make a 10 mM stock solution, which was further diluted with DMSO to 250 μM so as to prepare a working solution. For experimental groups, the working solution of the compound was added to an enzyme reaction solution in which 50 μL of 1.54 mM Cytochrome C solution was added to 900 μL of 50 mM Tris-HCl (pH7.5) containing 0.14% BSA. For negative control groups, DMSO not containing the compound of the invention was added to the enzyme reaction solution as above. For each experimental and control group, 20 μL of 100 ng/mL NQO1 protein was added, and then 10 μL of 20 mM NADH was added to bring up the total volume to 1 mL. The change of absorbance was measured at 550 nm for 10 minutes using 1 mL cuvette. The kinetics of reaction was measured by the increase of absorbance as the cytochrome C was reduced at 550 nm over 10 minutes. The activity of NQO1 was measured by the amount of cytochrome C that is being reduced (nmol cytochrome C that was reduced/min/ug NQO1 protein). • Absorption coefficient of Cytochrome C: 21.1 (μmol/mL)^−1cm^−1 • BSA: Bovine Serum Albumin • […]: Tris(hydroxymethyl)aminomethane hydrochloride (buffer solution) • Equipment=Cary 100 UV-Vis Spectrophotometer • The results are shown in Tables 1 to 8.

NQO1 protein, sequence (P15559 whole entry, species assumed): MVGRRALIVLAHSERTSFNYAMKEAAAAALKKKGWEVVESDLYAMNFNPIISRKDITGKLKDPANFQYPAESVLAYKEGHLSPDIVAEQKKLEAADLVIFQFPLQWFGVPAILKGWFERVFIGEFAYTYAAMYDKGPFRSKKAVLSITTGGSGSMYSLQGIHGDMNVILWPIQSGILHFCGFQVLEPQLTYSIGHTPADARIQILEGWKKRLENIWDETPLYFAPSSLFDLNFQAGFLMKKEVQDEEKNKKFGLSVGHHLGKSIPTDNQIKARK

| SMILES | NQO1 activity assay Cytochrome C reduced/min/μg NQO1 protein (10 nM Compound (Table 1)) | also measured |
| --- | --- | --- |
| Cc1nn(-c2cccc3ccccc23)c2c1C(=O)C(=O)c1ccccc1-2 [Compound 38, 3-Methyl-1-(naphthalen-1-yl)-1H-benzo[g]indazol-4,5-dione] | – | NQO1 activity assay Cytochrome C reduced/min/μg NQO1 protein (50 nM Compound (Table 4)): 2696 nmol cytochrome C that was reduced/min/ug NQO1 protein |
| Cc1nn(-c2ccc(C(=O)O)cc2)c2c1C(=O)C(=O)c1ccccc1-2 [Compound 37, 4-(3-Methyl-4,5-dioxo-4,5-dihydro-1H-benzo[g]indazol-1-yl)benzoic acid] | – | NQO1 activity assay Cytochrome C reduced/min/μg NQO1 protein (50 nM Compound (Table 2)): 1034 nmol cytochrome C that was reduced/min/ug NQO1 protein |
| Cc1nn(-c2cc(Cl)cc(Cl)c2)c2c1C(=O)C(=O)c1ccccc1-2 [Compound 36, 1-(3,5-Dichlorophenyl)-3-methyl-1H-benzo[g]indazol-4,5-dione] | – | NQO1 activity assay Cytochrome C reduced/min/μg NQO1 protein (50 nM Compound (Table 2)): 1873 nmol cytochrome C that was reduced/min/ug NQO1 protein |
| Cc1c2c(nn1S(=O)(=O)c1ccc([N+](=O)[O-])cc1)-c1ccccc1C(=O)C2=O [Compound 56, 3-Methyl-2-(4-nitrophenylsulfonyl)-2H-benzo[g]indazol-4,5-dione] | – | NQO1 activity assay Cytochrome C reduced/min/μg NQO1 protein (50 nM Compound (Table 7)): 1839 nmol cytochrome C that was reduced/min/ug NQO1 protein |
| O=C1C(=O)c2c(C(F)(F)F)nn(-c3ccccc3)c2-c2ccccc21 [Compound 34, 1-Phenyl-3-(trifluoromethyl)-1H-benzo[g]indazol-4,5-dione] | 716 nmol cytochrome C that was reduced/min/ug NQO1 protein | – |
| O=C1C(=O)c2c(CBr)nn(-c3ccccc3)c2-c2ccccc21 [Compound 16, 3-(Bromomethyl)-1-phenyl-1H-benzo[g]indazol-4,5-dione] | 596 nmol cytochrome C that was reduced/min/ug NQO1 protein | – |
| Cc1c2c(nn1S(=O)(=O)c1ccc(Cl)cc1)-c1ccccc1C(=O)C2=O [Compound 49, 2-(4-Chlorophenylsulfonyl)-3-methyl-2H-benzo[g]indazol-4,5-dione] | – | NQO1 activity assay Cytochrome C reduced/min/μg NQO1 protein (50 nM Compound (Table 6)): 2171 nmol cytochrome C that was reduced/min/ug NQO1 protein |
| Cc1nn(-c2ccc(F)cc2)c2c1C(=O)C(=O)c1ccccc1-2 [Compound 25, 1-(4-Fluorophenyl)-3-methyl-1H-benzo[g]indazol-4,5-dione] | 463 nmol cytochrome C that was reduced/min/ug NQO1 protein | – |
| Cc1c2c(nn1C)-c1ccccc1C(=O)C2=O [Compound 23, 2,3-Dimethyl-2H-benzo[g]indazol-4,5-dione] | 477 nmol cytochrome C that was reduced/min/ug NQO1 protein | – |
| Cc1c2c(nn1C(C)C)-c1ccccc1C(=O)C2=O [Compound 21, 2-Isopropyl-3-methyl-2H-benzo[g]indazol-4,5-dione] | 925 nmol cytochrome C that was reduced/min/ug NQO1 protein | – |
| CCOC(=O)c1cn2c(n1)C(=O)C(=O)c1ccccc1-2 [Compound 5, Ethyl 4,5-dioxo-4,5-dihydroimidazo[1,2-a]quinolin-2-carboxylate] | 816 nmol cytochrome C that was reduced/min/ug NQO1 protein | – |
| O=C1C(=O)c2c(CCc3ccccc3)nn(-c3ccccc3)c2-c2ccccc21 [Compound 12, 3-Phenethyl-1-phenyl-1H-benzo[g]indazol-4,5-dione] | 225 nmol cytochrome C that was reduced/min/ug NQO1 protein | – |
| COc1ccc(S(=O)(=O)n2nc3c(c2C)C(=O)C(=O)c2ccccc2-3)cc1 [Compound 51, 2-(4-Methoxyphenylsulfonyl)-3-methyl-2H-benzo[g]indazol-4,5-dione] | – | NQO1 activity assay Cytochrome C reduced/min/μg NQO1 protein (50 nM Compound (Table 6)): 1288 nmol cytochrome C that was reduced/min/ug NQO1 protein |
| Cc1nn(-c2nccs2)c2c1C(=O)C(=O)c1ccccc1-2 [Compound 40, 3-Methyl-1-(thiazol-2-yl)-1H-benzo[g]indazol-4,5-dione] | – | NQO1 activity assay Cytochrome C reduced/min/μg NQO1 protein (50 nM Compound (Table 3)): 2041 nmol cytochrome C that was reduced/min/ug NQO1 protein |
| Cc1n[nH]c2c1C(=O)C(=O)c1ccccc1-2 [Compound 43, 3-Methyl-1H-benzo[g]indazol-4,5-dione] | – | NQO1 activity assay Cytochrome C reduced/min/μg NQO1 protein (50 nM Compound (Table 2)): 1008 nmol cytochrome C that was reduced/min/ug NQO1 protein |
| Cc1c2c(nn1S(=O)(=O)C1CCCC1)-c1ccccc1C(=O)C2=O [Compound 54, 2-(Cyclopentylsulfonyl)-3-methyl-2H-benzo[g]indazol-4,5-dione] | – | NQO1 activity assay Cytochrome C reduced/min/μg NQO1 protein (50 nM Compound (Table 7)): 1295 nmol cytochrome C that was reduced/min/ug NQO1 protein |
| Cc1ccc(-n2nc(C)c3c2-c2ccccc2C(=O)C3=O)cc1 [Compound 29, 3-Methyl-1-p-tolyl-1H-benzo[g]indazol-4,5-dione] | 668 nmol cytochrome C that was reduced/min/ug NQO1 protein | – |
| O=C1C(=O)c2c(Cn3ccnc3)nn(-c3ccccc3)c2-c2ccccc21 [Compound 24, 3-((1H-Imidazol-1-yl)methyl)-1-phenyl-1H-benzo[g]indazol-4,5-dione] | 596 nmol cytochrome C that was reduced/min/ug NQO1 protein | – |
| COCc1nn(-c2ccccc2)c2c1C(=O)C(=O)c1ccccc1-2 [Compound 18, 3-(Methoxymethyl)-1-phenyl-1H-benzo[g]indazol-4,5-dione] | 189 nmol cytochrome C that was reduced/min/ug NQO1 protein | – |
| CCOC(=O)c1nc2n(c1-c1ccccc1)-c1ccccc1C(=O)C2=O [Compound 6, Ethyl 4,5-dioxo-1-phenyl-4,5-dihydroimidazo[1,2-a]quinolin-2-carboxylate] | 916 nmol cytochrome C that was reduced/min/ug NQO1 protein | – |
| O=C1C(=O)c2ncc(-c3ccc(C(F)(F)F)cc3)n2-c2ccccc21 [Compound 4, 1-(4-(Trifluoromethyl)phenyl)imidazo[1,2-a]quinoline-4,5-dione] | 170 nmol cytochrome C that was reduced/min/ug NQO1 protein | – |
| Cc1ccc(CCn2nc(C)c3c2-c2ccccc2C(=O)C3=O)cc1 [Compound 68, 3-Methyl-1-(4-methylphenethyl)-1H-benzo[g]indazol-4,5-dione] | – | NQO1 activity assay Cytochrome C reduced/min/μg NQO1 protein (50 nM Compound (Table 8)): 1865 nmol cytochrome C that was reduced/min/ug NQO1 protein |
| Cc1c2c(nn1S(=O)(=O)c1ccc(F)cc1F)-c1ccccc1C(=O)C2=O [Compound 59, 2-(2,4-Difluorophenylsulfonyl)-3-methyl-2H-benzo[g]indazol-4,5-dione] | – | NQO1 activity assay Cytochrome C reduced/min/μg NQO1 protein (50 nM Compound (Table 8)): 1923 nmol cytochrome C that was reduced/min/ug NQO1 protein |
| Cc1nn(-c2ccc(Cl)cc2)c2c1C(=O)C(=O)c1ccccc1-2 [Compound 26, 1-(4-Chlorophenyl)-3-methyl-1H-benzo[g]indazol-4,5-dione] | 465 nmol cytochrome C that was reduced/min/ug NQO1 protein | – |
| Cc1c2c(nn1-c1ccncc1)-c1ccccc1C(=O)C2=O [Compound 42, 3-Methyl-2-(pyridin-4-yl)-2H-benzo[g]indazol-4,5-dione] | – | NQO1 activity assay Cytochrome C reduced/min/μg NQO1 protein (50 nM Compound (Table 3)): 3212 nmol cytochrome C that was reduced/min/ug NQO1 protein |
| Cc1ccc(CCn2nc3c(c2C)C(=O)C(=O)c2ccccc2-3)cc1 [Compound 69, 3-Methyl-2-(4-methylphenethyl)-2H-benzo[g]indazol-4,5-dione] | – | NQO1 activity assay Cytochrome C reduced/min/μg NQO1 protein (50 nM Compound (Table 8)): 2460 nmol cytochrome C that was reduced/min/ug NQO1 protein |
| O=C1C(=O)c2c(-c3ccc(F)c(F)c3)nn(-c3ccccc3)c2-c2ccccc21 [Compound 15, 3-(3,4-Difluorophenyl)-1-phenyl-1H-benzo[g]indazol-4,5-dione] | 190 nmol cytochrome C that was reduced/min/ug NQO1 protein | – |
